Measured values published in patent US11559530B2, “Oral testosterone undecanoate therapy” (Lipocine Inc., priority 2016, dated 2023).

Experiment: Clinical study of oral TU testosterone therapy in hypogonadal males: serum testosterone Cavg and Cmax responder analysis
Type: in vivo, human
Conditions: for Cavg >300 ng/dL ≥75% patients / Cavg >300 ng/dL ≥80% patients / Cmax > 1500 ng/dL <15% patients / Cmax > 1500 ng/dL <20% patients / Cmax > 1800 ng/dL <5% patients / Cmax > 1800 ng/dL <10% patients / Cmax > 2500 ng/dL <2% patients / Cmax > 2500 ng/dL none of patients: with food
Procedure: The dosage form from Example B of Composition 4 with dosing regimen (Regimen #9-16) of dosing category BID-equal dose with daily dose range 150-600 mg were used for a Clinic Study of Testosterone Therapy for hypogonadal males.
The clinical study was a randomized double-blind, placebo-controlled dose escalating study of the safety, efficacy, tolerability, and pharmacokinetics of testosterone therapy in hypogonadal males. This clinic study was a single and multiple, ascending-dose study that was designed to determine the optimal starting, titration (if appropriate), or single fixed dose for safety and efficacy targeted by the US FDA. The study also verified the time for testosterone levels to reach steady state and identified a suitable fixed dose dosing regimen that satisfies an unmet need for safety and efficacy for oral TT.
This study was carried out with conditions of a single-center, randomized, double-blind, placebo-controlled, ascending multiple-dose, and serial-group in adult hypogonadal male subjects. The objectives of this study were: • a) To assess the safety, efficacy, and tolerability of escalating single and multiple oral doses of TU dosage forms in hypogonadal males • b) To determine the pharmacokinetics (PK) of testosterone (T), DHT, TU, DHTU, and estradiol (E2) after single and multiple oral doses of TU dosage forms in hypogonadal males • C) To identify a fixed dose dosing regimen satisfying US FDA targets, without needing to titrate, for restoring serum T levels in hypogonadal males to the normal T range.
The dosing regimen for this clinical study ranged from 150 mg daily dose (75 mg BID dose) to 600 mg daily dose (300 mg BID dose). Observed pharmacokinetic parameters (T, DHT, TU, DHTU, and E2) after single and multiple oral doses of TU dosage forms in the patients were recorded in connection with each daily dose listed in the report.
The overall analyzed results of this clinical study were plotted according to % of patients for safety (Cmax<1,500 ng/dL) and efficacy (Cavg>300 ng/dL) with a variety of dosing regimens. Note that only doses that were multiples of 75 mg were tested in the clinical study, the results predicted for the other doses are estimated from these values.

[1] = Regimen #1, TID-equal dose, TU 75/75/75 mg
[2] = Regimen #2, TID-equal dose, TU 112/112/112 mg
[3] = Regimen #3, TID-equal dose, TU 125/125/125 mg
[4] = Regimen #4, TID-equal dose, TU 150/150/150 mg
[5] = Regimen #5, TID-equal dose, TU 188/188/188 mg
[6] = Regimen #6, TID-equal dose, TU 225/225/225 mg
[7] = Regimen #7, TID-equal dose, TU 237/237/237 mg
[8] = Regimen #8, TID-equal dose, TU 250/250/250 mg
[9] = Regimen #9, BID-equal dose (AM/PM), TU 75/75 mg
[10] = Regimen #10, BID-equal dose (AM/PM), TU 150/150 mg
[11] = Regimen #11, BID-equal dose (AM/PM), TU 215/215 mg
[12] = Regimen #12, BID-equal dose (AM/PM), TU 225/225 mg
[13] = Regimen #13, BID-equal dose (AM/PM), TU 237/237 mg
[14] = Regimen #14, BID-equal dose (AM/PM), TU 250/250 mg
[15] = Regimen #15, BID-equal dose (AM/PM), TU 265/265 mg
[16] = Regimen #16, BID-equal dose (AM/PM), TU 300/300 mg
[17] = Regimen #17, BID-different dose (AM/PM), TU 75/225 mg
[18] = Regimen #18, BID-different dose (AM/PM), TU 75/300 mg
[19] = Regimen #19, BID-different dose (AM/PM), TU 150/225 mg
[20] = Regimen #20, BID-different dose (AM/PM), TU 225/150 mg
[21] = Regimen #21, BID-different dose (AM/PM), TU 225/300 mg
[22] = Regimen #22, BID-different dose (AM/PM), TU 300/75 mg
[23] = Regimen #23, BID-different dose (AM/PM), TU 300/150 mg
[24] = Regimen #24, BID-different dose (AM/PM), TU 300/225 mg

CCCCCCCCCCC(=O)O[C@H]1CC[C@H]2[C@@H]3CCC4=CC(=O)CC[C@]4(C)[C@H]3CC[C@]12C [TU, testosterone undecanoate]
Cavg >300 ng/dL ≥75% patients [1]: No
Cavg >300 ng/dL ≥80% patients [1]: No
Cavg >300 ng/dL ≥75% patients [2]: No
Cavg >300 ng/dL ≥80% patients [2]: No
Cavg >300 ng/dL ≥75% patients [3]: No
Cavg >300 ng/dL ≥80% patients [3]: No
Cavg >300 ng/dL ≥75% patients [4]: Yes
Cavg >300 ng/dL ≥80% patients [4]: Yes
Cavg >300 ng/dL ≥75% patients [5]: Yes
Cavg >300 ng/dL ≥80% patients [5]: Yes
Cavg >300 ng/dL ≥75% patients [6]: Yes
Cavg >300 ng/dL ≥80% patients [6]: Yes
Cmax > 1500 ng/dL <15% patients [6]: No
Cmax > 1500 ng/dL <20% patients [6]: Yes
Cmax > 1800 ng/dL <5% patients [6]: No
Cmax > 1800 ng/dL <10% patients [6]: Yes
Cmax > 2500 ng/dL <2% patients [6]: Yes
Cmax > 2500 ng/dL none of patients [6]: No
Cavg >300 ng/dL ≥75% patients [7]: Yes
Cavg >300 ng/dL ≥80% patients [7]: Yes
Cmax > 1500 ng/dL <15% patients [7]: No
Cmax > 1500 ng/dL <20% patients [7]: Yes
Cmax > 1800 ng/dL <5% patients [7]: No
Cmax > 1800 ng/dL <10% patients [7]: Yes
Cmax > 2500 ng/dL <2% patients [7]: No
Cmax > 2500 ng/dL none of patients [7]: No
Cavg >300 ng/dL ≥75% patients [8]: Yes
Cavg >300 ng/dL ≥80% patients [8]: Yes
Cmax > 1500 ng/dL <15% patients [8]: No
Cmax > 1500 ng/dL <20% patients [8]: No
Cmax > 1800 ng/dL <5% patients [8]: No
Cmax > 1800 ng/dL <10% patients [8]: No
Cmax > 2500 ng/dL <2% patients [8]: No
Cmax > 2500 ng/dL none of patients [8]: No
Cavg >300 ng/dL ≥75% patients [9]: No
Cavg >300 ng/dL ≥80% patients [9]: No
Cmax > 1500 ng/dL <15% patients [9]: Yes
Cmax > 1500 ng/dL <20% patients [9]: Yes
Cmax > 1800 ng/dL <5% patients [9]: Yes
Cmax > 1800 ng/dL <10% patients [9]: Yes
Cmax > 2500 ng/dL <2% patients [9]: Yes
Cmax > 2500 ng/dL none of patients [9]: Yes
Cavg >300 ng/dL ≥75% patients [10]: No
Cavg >300 ng/dL ≥80% patients [10]: No
Cmax > 1500 ng/dL <15% patients [10]: Yes
Cmax > 1500 ng/dL <20% patients [10]: Yes
Cmax > 1800 ng/dL <5% patients [10]: Yes
Cmax > 1800 ng/dL <10% patients [10]: Yes
Cmax > 2500 ng/dL <2% patients [10]: Yes
Cmax > 2500 ng/dL none of patients [10]: Yes
Cavg >300 ng/dL ≥75% patients [11]: Yes
Cavg >300 ng/dL ≥80% patients [11]: No
Cmax > 1500 ng/dL <15% patients [11]: Yes
Cmax > 1500 ng/dL <20% patients [11]: Yes
Cmax > 1800 ng/dL <5% patients [11]: Yes
Cmax > 1800 ng/dL <10% patients [11]: Yes
Cmax > 2500 ng/dL <2% patients [11]: Yes
Cmax > 2500 ng/dL none of patients [11]: Yes
Cavg >300 ng/dL ≥75% patients [12]: Yes
Cavg >300 ng/dL ≥80% patients [12]: Yes
Cmax > 1500 ng/dL <15% patients [12]: Yes
Cmax > 1500 ng/dL <20% patients [12]: Yes
Cmax > 1800 ng/dL <5% patients [12]: Yes
Cmax > 1800 ng/dL <10% patients [12]: Yes
Cmax > 2500 ng/dL <2% patients [12]: Yes
Cmax > 2500 ng/dL none of patients [12]: Yes
Cavg >300 ng/dL ≥75% patients [13]: Yes
Cavg >300 ng/dL ≥80% patients [13]: Yes
Cmax > 1500 ng/dL <15% patients [13]: Yes
Cmax > 1500 ng/dL <20% patients [13]: Yes
Cmax > 1800 ng/dL <5% patients [13]: Yes
Cmax > 1800 ng/dL <10% patients [13]: Yes
Cmax > 2500 ng/dL <2% patients [13]: Yes
Cmax > 2500 ng/dL none of patients [13]: Yes
Cavg >300 ng/dL ≥75% patients [14]: Yes
Cavg >300 ng/dL ≥80% patients [14]: Yes
Cmax > 1500 ng/dL <15% patients [14]: No
Cmax > 1500 ng/dL <20% patients [14]: Yes
Cmax > 1800 ng/dL <5% patients [14]: Yes
Cmax > 1800 ng/dL <10% patients [14]: Yes
Cmax > 2500 ng/dL <2% patients [14]: Yes
Cmax > 2500 ng/dL none of patients [14]: Yes
Cavg >300 ng/dL ≥75% patients [15]: Yes
Cavg >300 ng/dL ≥80% patients [15]: Yes
Cmax > 1500 ng/dL <15% patients [15]: No
Cmax > 1500 ng/dL <20% patients [15]: Yes
Cmax > 1800 ng/dL <5% patients [15]: No
Cmax > 1800 ng/dL <10% patients [15]: Yes
Cmax > 2500 ng/dL <2% patients [15]: Yes
Cmax > 2500 ng/dL none of patients [15]: No
Cavg >300 ng/dL ≥75% patients [16]: Yes
Cavg >300 ng/dL ≥80% patients [16]: Yes
Cmax > 1500 ng/dL <15% patients [16]: No
Cmax > 1500 ng/dL <20% patients [16]: No
Cmax > 1800 ng/dL <5% patients [16]: No
Cmax > 1800 ng/dL <10% patients [16]: Yes
Cmax > 2500 ng/dL <2% patients [16]: Yes
Cmax > 2500 ng/dL none of patients [16]: No
Cavg >300 ng/dL ≥75% patients [17]: No
Cavg >300 ng/dL ≥80% patients [17]: No
Cmax > 1500 ng/dL <15% patients [17]: Yes
Cmax > 1500 ng/dL <20% patients [17]: Yes
Cmax > 1800 ng/dL <5% patients [17]: Yes
Cmax > 1800 ng/dL <10% patients [17]: Yes
Cmax > 2500 ng/dL <2% patients [17]: Yes
Cmax > 2500 ng/dL none of patients [17]: Yes
Cavg >300 ng/dL ≥75% patients [18]: No
Cavg >300 ng/dL ≥80% patients [18]: No
Cmax > 1500 ng/dL <15% patients [18]: Yes
Cmax > 1500 ng/dL <20% patients [18]: Yes
Cmax > 1800 ng/dL <5% patients [18]: No
Cmax > 1800 ng/dL <10% patients [18]: Yes
Cmax > 2500 ng/dL <2% patients [18]: Yes
Cmax > 2500 ng/dL none of patients [18]: No
Cavg >300 ng/dL ≥75% patients [19]: No
Cavg >300 ng/dL ≥80% patients [19]: No
Cmax > 1500 ng/dL <15% patients [19]: Yes
Cmax > 1500 ng/dL <20% patients [19]: Yes
Cmax > 1800 ng/dL <5% patients [19]: Yes
Cmax > 1800 ng/dL <10% patients [19]: Yes
Cmax > 2500 ng/dL <2% patients [19]: Yes
Cmax > 2500 ng/dL none of patients [19]: Yes
Cavg >300 ng/dL ≥75% patients [20]: Yes
Cavg >300 ng/dL ≥80% patients [20]: No
Cmax > 1500 ng/dL <15% patients [20]: Yes
Cmax > 1500 ng/dL <20% patients [20]: Yes
Cmax > 1800 ng/dL <5% patients [20]: Yes
Cmax > 1800 ng/dL <10% patients [20]: Yes
Cmax > 2500 ng/dL <2% patients [20]: Yes
Cmax > 2500 ng/dL none of patients [20]: Yes
Cavg >300 ng/dL ≥75% patients [21]: Yes
Cavg >300 ng/dL ≥80% patients [21]: Yes
Cmax > 1500 ng/dL <15% patients [21]: No
Cmax > 1500 ng/dL <20% patients [21]: No
Cmax > 1800 ng/dL <5% patients [21]: No
Cmax > 1800 ng/dL <10% patients [21]: Yes
Cmax > 2500 ng/dL <2% patients [21]: Yes
Cmax > 2500 ng/dL none of patients [21]: No
Cavg >300 ng/dL ≥75% patients [22]: No
Cavg >300 ng/dL ≥80% patients [22]: No
Cmax > 1500 ng/dL <15% patients [22]: No
Cmax > 1500 ng/dL <20% patients [22]: Yes
Cmax > 1800 ng/dL <5% patients [22]: No
Cmax > 1800 ng/dL <10% patients [22]: Yes
Cavg >300 ng/dL ≥75% patients [23]: Yes
Cavg >300 ng/dL ≥80% patients [23]: Yes
Cavg >300 ng/dL ≥75% patients [24]: Yes
Cavg >300 ng/dL ≥80% patients [24]: Yes
US FDA T level targets for safety and efficacy (fixed dose, 430 mg TU daily (215 mg BID-equal) to 480 mg TU daily (240 mg BID-equal)): can satisfy US FDA T level targets for safety and efficacy without titration
